Assay results taken from PMC4052318, “Cyclodepsipeptides and Other O-Containing Heterocyclic Metabolites from Beauveria felina EN-135, a Marine-Derived Entomopathogenic Fungus” (Marine Drugs, 2014).
Values after ≈ are worked out from the molar mass of the structure shown. Numbered stars: 1 amine (or outer) side, 2 acyl side, 3 side chain; on linkers, the order of the positions; unused ones are H or OH. Square brackets hold non-standard residues; d marks the D form. Peptide text beside a SMILES is read from it. X1 = O=C([C@@H](C[C@H](O)CCl)O[*:1])[*:2]; dLac(3-vinyl) = C=CC[C@@H](O)C(=O)O; NMeV = CN[C@H](C(=O)O)C(C)C; NMeA = CN[C@@H](C)C(=O)O; βAla = NCCC(=O)O

Tests used:
[1] = test system: brine shrimp (Artemia salina); test: Brine-shrimp lethality; assay type: in vivo; conditions: for lethal rate against brine shrimp: at a concentration of 100 μg/mL; for LD50, lethality against brine shrimp: colchicine as positive control
Method: The brine-shrimp (Artemia salina) lethality of the isolated compounds was determined as previously described. Colchicine was used as a positive control.

P. aeruginosa = test: Antimicrobial assay (disk diffusion and double dilution methods); assay type: cell-based; conditions: Pseudomonas aeruginosa; chloramphenicol as positive control; read-out: MIC against P. aeruginosa
Source text: The antibacterial activities against E. coli, S. aureus, P. aeruginosa, V. alginolyticus, V. anguillarum, and E. tarda along with the antifungal activities against P. piricola, A. brassicae, C. gloeosporioides, and C. fusarium were investigated using the disk diffusion and double dilution methods as previously described. Chloramphenicol and amphotericin B were used as positive controls for the antibacterial and antifungal bioassays, respectively.

Compound	LD50, lethality against brine shrimp [1]	other results
C[C@@H]1CC2=C(CO1)C(=O)[C@@](C)(O)[C@H](O)C2 [Compound 2, felinone A]	–	lethal rate against brine shrimp [1]: 61.4%
C=CC[C@H]1OC(=O)CCNC(=O)[C@H](C)N(C)C(=O)[C@H](C(C)C)N(C)C(=O)[C@H]([C@@H](C)CC)NC(=O)[C@@H]2CCCN2C1=O [Compound 4, destruxin A] (cyclo([dLac(3-vinyl)]PI[NMeV][NMeA][βAla]))	5.34 μΜ	–
CC[C@H](C)[C@@H]1NC(=O)[C@@H]2CCCN2C(=O)[C@@H](C[C@H](O)CCl)OC(=O)CCNC(=O)[C@H](C)N(C)C(=O)[C@H](C(C)C)N(C)C1=O [Compound 6, destruxin E chlorohydrin] (cyclo([X1]PI[NMeV][NMeA][βAla]))	2.16 μΜ	–
O=C(N[C@H](CO)[C@H](O)c1ccc([N+](=O)[O-])cc1)C(Cl)Cl [chloramphenicol]	–	MIC (P. aeruginosa): 4 µg/mL (≈ 12.4 µM)
CC[C@H](C)[C@@H]1CC(=O)NCC(=O)N[C@@H](C(C)C)C(=O)N[C@H](CC(C)C)C(=O)N[C@@H](C)C(=O)N[C@@H](C)C(=O)O1 [Compound 1, iso-isariin D]	26.58 μΜ	–
felinone B [Compound 3]	–	lethal rate against brine shrimp [1]: 59.6%
COc1cc2c(c(OC)c1OC)-c1ccc(OC)c(=O)cc1[C@@H](NC(C)=O)CC2 [colchicine, reference compound]	88.4 μΜ	–
